According to patent publication US8536196B2, “Substituted 1,3-dioxanes useful as PPAR modulators” (Evolva SA, priority 2007, dated 2013):

What was measured:
[1] = molecular target: T1, PPARgamma (h) (Homo sapiens, UniProt P37231); assay: Human recombinant (E. coli) PPARgamma (h) binding assay
T1 construct: host or cells: E. coli
T1 sequence (P37231 1-505): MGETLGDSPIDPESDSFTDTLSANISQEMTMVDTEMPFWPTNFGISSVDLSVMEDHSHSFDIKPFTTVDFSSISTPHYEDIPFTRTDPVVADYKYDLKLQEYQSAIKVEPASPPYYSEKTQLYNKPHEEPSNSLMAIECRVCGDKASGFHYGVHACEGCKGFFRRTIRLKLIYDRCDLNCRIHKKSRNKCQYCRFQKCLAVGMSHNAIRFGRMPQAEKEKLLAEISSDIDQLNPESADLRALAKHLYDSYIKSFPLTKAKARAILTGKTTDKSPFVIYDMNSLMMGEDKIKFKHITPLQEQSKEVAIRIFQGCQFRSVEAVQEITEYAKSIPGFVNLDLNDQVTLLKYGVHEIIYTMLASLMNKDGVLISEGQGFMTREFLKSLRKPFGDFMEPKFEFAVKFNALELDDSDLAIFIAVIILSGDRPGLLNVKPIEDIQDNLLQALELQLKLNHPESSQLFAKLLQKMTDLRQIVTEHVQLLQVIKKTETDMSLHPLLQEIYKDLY
Protocol: The results are expressed as a percent of control specific binding ((measured specific binding/control specific binding)×100) obtained in the presence of the test compounds. The IC50 values (concentration causing a half-maximal inhibition of control specific binding) and Hill coefficients (nH) were determined by non-linear regression analysis of the competition curves generated with mean replicate values using Hill equation curve fitting (Y=D+[(A D)/(1+(C/C50)nH)], where Y=specific binding, D=minimum specific binding, A=maximum specific binding, C=compound concentration, C50=IC50, and nH=slope factor). This analysis was performed using a software developed at Cerep (Hill software) and validated by comparison with data generated by the commercial software SigmaPlot® 4.0 for Windows® (© 1997 by SPSS Inc.). The inhibition constants (Ki) were calculated using the Cheng Prusoff equation (Ki=IC50/(1+(L/KD)), where L=concentration of radioligand in the assay, and KD=affinity of the radioligand for the receptor).

[2] = system: 1.5 μM U-46619-induced platelet aggregation (platelet rich plasma); assay: TP receptor platelet aggregation - rabbit; assay type: cell-based, New Zealand Rabbit; conditions: Oryctolagus cuniculus, @ 0.1 mM (printed in the 30 μM column)
From the text: TP Receptor Platelet Aggregation—Rabbit:
Thrombosis Research 33:277-288

[3] = Glucose lowering effect in KKAy mouse model; assay type: in vivo; conditions: male, mouse, serum; KKA^y mice, 53 mg/kg BID oral gavage 14 days, 4 hours after the last administration, average ± S.E.M.; read-out: Serum level of the compound
Protocol: (§1) 52 male KKA^y mice were obtained commercially (e.g., from Clea Japan) at an age of 6 weeks and put on a high fat diet upon arrival. Individual mice were housed in IVC Type II cages during both the acclimatization and the experimental phase. Both food (high fat diet) and water were supplied ad libitum.
(§2) Mice were randomized into treatment groups according to their 4-h fasting blood glucose.
(§3) 4 hours after the last administration, non-fasting conditions.
(§4) Blood was collected into heparin containing glass capillaries which were subsequently centrifuged in a “Haematokrit 24” centrifuge (Hettich) at 15′200×g for 10 min at room temperature to obtain the hematocrit value.
(§5) The following serum parameters were determined on a COBAS INTEGRA 800 auto analyzer (Roche Diagnostics, Switzerland) using the reagents and protocols provided by the supplier.
(§6) All measurements were made on Day 14 of administration, except for the food intake and body weight measurements that were made on Day 12.

[4] = system: KKA^y mice; assay: Glucose lowering effect in KKAy mouse model; assay type: in vivo
Protocol: as §1, §2, §3, §4, §5, §6

[5] = system: mice (FeCl3 induced femoral artery thrombosis); assay: FeCl3 arterial thrombosis mouse model (occlusion time, blood flow); assay type: in vivo
Protocol: The solutions were diluted 3.3-fold in saline and 100 μl/25 g was injected.
During the experiments, a soluble potassium salt of the drug was provided, diluted in saline. Of this formulation, 100 μl/25 g was injected i.v. in the tail vein (dose of 100 mg/kg).
Aspirin is given the same way at a dose of 200 mg/kg. Clopidogrel is administered by oral gavage at a dose of 20 mg/kg at 6-7 hours prior to the experiment. The solutions were coded (except for clopidogrel) and the operator was blinded to the code. The animals assigned to each group were matched for body weight. All mice used were 8-10 weeks old males and were in a 100% Swiss genetic background.
(§7) The flow in each image is expressed as a percentage of that at the contralateral side, and data are averaged for all 120 images to determine total flow. The same analysis is performed for 10 min intervals (which gives essentially the same information as the area under the curve). […] Flow before treatment is recorded as 100%, and that in occluded arteries as 0%. At the end of the experiment, blood is collected on 0.01M citrate by heart puncture for determination of blood cell counts. Plasma is prepared by centrifugation and stored at −20° C. for determination of drug levels.
Statistical analysis for differences between two groups is performed by non-parametric Student t-test. Occlusion times >30 min were considered equal to 30 min for statistical analysis. It should be noted that this approach may result in a statistical bias, the more so because the number of experiments is not the same in the different groups. Significance is set at p<0.05.

[6] = Blood cell analysis at end of thrombosis experiment; assay type: in vivo, mouse
Protocol: as §7
Table VI summarizes the results of blood cell analysis performed on a sample taken at the end of the observation period. (Z)-6-((2S,4S,5R)-2-(2-chlorophenyl)-4-(2-hydroxyphenyl)-1,3-dioxan-5-yl)hex-4-enoic is referred to in Table VI as EV.

[7] = molecular target: T2, mPPARalphaLBD (Mus musculus, UniProt P23204); assay: PPARalpha transactivation assay; assay type: cell-based
T2 construct: expressed in transfected cells
T2 sequence (P23204 239-466 limits assumed): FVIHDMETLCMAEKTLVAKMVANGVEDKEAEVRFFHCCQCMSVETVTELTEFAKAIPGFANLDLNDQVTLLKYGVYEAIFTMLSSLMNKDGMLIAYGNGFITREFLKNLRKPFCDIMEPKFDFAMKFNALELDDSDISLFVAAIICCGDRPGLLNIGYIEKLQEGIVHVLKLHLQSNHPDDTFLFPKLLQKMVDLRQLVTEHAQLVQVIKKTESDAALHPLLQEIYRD
Protocol: This example describes a transactivation assay for determining PPARalpha modulating activity.
DPD and other ligands are tested for their ability to transactivate PPARalpha essentially as described in Example 22.

[8] = 53 mg/kg BID oral gavage 14 days, Day 14, average ± S.E.M.
[9] = 30 mg/kg vehicle i.v., n = 4, mean ± SEM
[10] = 100 mg/kg vehicle i.v., n = 9, mean ± SEM

## O=C(O)CC/C=C\C[C@H]1COC(c2ccccc2Cl)O[C@H]1c1ccccc1O (single isomer, unassigned) [Compound A]
[1]; @ 30 μM
  PPARgamma binding @ 30 μM: no binding
[2]
  inhibition at 100 µM: 15%

## O=C(O)CC/C=C\C[C@@H]1CO[C@H](c2ccccc2Cl)O[C@@H]1c1ccccc1O (single isomer, unassigned) [Compound B]
[3]
  concentration at 4 h: 161 ± 60 ng/mL
[4]; [8]
  ALP: 21.5 ± 1.6 dU/L
  ALT: 5.1 ± 0.6 dU/L
  AST: 7.7 ± 1.0 dU/L
  Hematocrit: 40.1 ± 1.6%
  Serum Glucose: decreased
[4]; 53 mg/kg BID oral gavage 14 days, Day 14, average ± S.E.M., listed as (Z)-6-(2S,4S,5R)-2-(2-chlorophenyl)-4-(2-hydroxyphenyl)-1,3-dioxan-5-yl(hex-4-e, 53 mg/kg)
  FFA: slightly decreased
[4]; 53 mg/kg BID oral gavage, Day 12, average ± S.E.M.
  Food Intake: 5.0 ± 0.6 g/day
[5]; 30 mg/kg in vehicle (DMSO/PEG 400) i.v.
  occlusion time: slightly prolongs the occlusion time as compared to aspirin (p=0.024), but has no effect as compared to vehicle
[5]; 30 mg/kg in vehicle i.v.
  total blood flow: no effect
[5]; 100 mg/kg in vehicle i.v.
  blood flow, time window 0-10 min: significantly higher flow as compared to aspirin (p=0.0002) but not as compared to vehicle only (p=0.11)
  total blood flow: improved total blood flow as compared to aspirin (p=0.055), but not as compared to vehicle (p=0.45)
[6]; [9]
  Hematocrit: 62 ± 7.3%
  Hemoglobin: 15 ± 0.28 g/dL
  Lymphocytes: 42 ± 4.7%
  Neutrophils: 56 ± 5.3%
  Platelets: 1020 ± 89 ×10^3/μl
  Red blood cells: 9.1 ± 0.26 ×10^6/μl
  White blood cells: 0.95 ± 0.17 ×10^3/μl
[6]; [10]
  Hematocrit: 70 ± 3.5%
  Hemoglobin: 15 ± 0.30 g/dL
  Lymphocytes: 58 ± 11%
  Neutrophils: 34 ± 12%
  Platelets: 895 ± 46 ×10^3/μl
  Red blood cells: 9.2 ± 0.17 ×10^6/μl
  White blood cells: 1.5 ± 0.46 ×10^3/μl

## CC(C)(Sc1ccc(CCN(CCCCC2CCCCC2)C(=O)NC2CCCCC2)cc1)C(=O)O [GW7647, reference compound]
[7]
  increase in PPARalpha transactivation: over 2 fold

## COc1ccc(C(=O)NCc2cccnc2)cc1C(=O)NCc1cccnc1 [Picotamide, reference compound]
[1]; @ 10 μM
  PPARgamma binding @ 10 μM: no binding

## CN(CCOc1ccc(CC2SC(=O)NC2=O)cc1)c1ccccn1 (stereo not shown) [Rosiglitazone, rosiglitazone, reference compound]
[4]; 5 mg/kg BID oral gavage 14 days, Day 14, average ± S.E.M., 5 mg/kg
  Heart weight: increased
